According to US9023837B2, “Androgen induced oxidative stress inhibitors” (Colby Pharmaceutical Company, priority 2010, dated 2015):
Several values for one entry are separate records, joined by “and”; a condition that tells them apart may be missing. Equal values may be shown once. Entries after “also recorded” stand apart in the source; their conditions may differ.

Experiments:
[1] = molecular target: T1, Androgen Receptor Ligand Binding Domain (AR-LBD) (Rattus norvegicus, UniProt P15207); test: fluorescence polarization assay for AR-LBD binding; details: bicalutamide positive control
T1 sequence (P15207 651-882 limits assumed): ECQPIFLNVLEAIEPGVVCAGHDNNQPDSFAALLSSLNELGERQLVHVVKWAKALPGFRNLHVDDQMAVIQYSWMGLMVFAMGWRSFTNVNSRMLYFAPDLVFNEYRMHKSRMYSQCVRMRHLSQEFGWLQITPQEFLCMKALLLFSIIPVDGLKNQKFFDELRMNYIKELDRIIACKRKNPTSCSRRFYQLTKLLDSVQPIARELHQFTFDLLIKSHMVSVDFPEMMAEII
Description: Binding of bicalutamide with AR-LBD was used as a positive control.
Bicalutamide is used as a positive control.

LNCaP cells [2] = test: growth inhibition of LNCaP cells; assay type: cell-based, human; set-up: concentration range of cell growth inhibition: unit not given here; details: presence and absence of R1881
Description: (§1) Culture conditions for LNCaP androgen response studies included use of cells passage 40-90, hormone depleted media containing 4% charcoal-stripped FBS plus 1% non-stripped FBS (F1C4), and synthetic androgen R1881 (methyltrienolone; NEN, Boston, Mass.) at 1 nM for maximal induction of JunD and ROS as described before (17,19,20). For AR-JunD interaction studies in AR-transfected Hep3B cells, R1881 was used at 2 nM in F1C4 medium to maximally induce the AR.
(§2) Graded concentrations of each of the 8-10 designed peptides identified herein are further tested for their ability to inhibit growth of androgen-dependent LNCaP and LAPC-4 cells using a DNA fluorescence assay and androgen-induced ROS using DCFH dye oxidation assay.

LNCaP cells [3] = test: DCF dye oxidation assay, ROS in LNCaP cells; assay type: cell-based, human
Text: Described herein are tests for the effect of these three compounds on the androgen-induced ROS production in androgen-dependent LNCaP cells using the DCF dye oxidation assay (see the complete proposal). All data were normalized to the DCF dye fluorescence of control untreated LNCaP cells and expressed as percent of control.
as §1, §2

[4] = system: TRansgenic Adenocarcinoma in Mouse Prostate (TRAMP) animals; test: TRAMP mouse model of prostate cancer; assay type: in vivo
Text: (§3) Described herein are molecules, such as for example, N,N′-butadienyl-butanediamine inhibitor of APAO or one of its pro-drugs or analogs, as shown in the figures disclosed herein in this application. […] SSAT promoter sequence, however, contains no AR-binding element (ARE).

human CaP cells = test: androgen-induced ROS production in human CaP cells; assay type: cell-based; details: pretreatment
Text: as §3

SSAT promoter = SSAT promoter luciferase reporter in LNCaP cells; assay type: cell-based, human; details: 1 nM R1881, 72 h
Description: The full length (FL) SSAT promoter sequence, kindly provided by Dr. Robert Casero (Johns Hopkins University, Baltimore, Md.), was amplified and cloned into pGL4-basic vector (Promega) with a firefly luciferase reporter gene. This vector, pGL4-SSAT-luc, was transiently transfected into our published (20) JunD-silenced (siJunD) and vector control LNCaP cell lines. Briefly, 5×10^5 siJunD or vector control LNCaP cells were seeded, then transfected one day later with […] pGL4-SSAT-luc DNA construct using Lipofectamine2000 (Invitrogen). After transfection, cells were treated with 1 nM R1881 or left untreated for 72 h, then lysed. Luciferase activity was measured in cell lysates by a luciferase assay system kit (Promega) following the manufacturer-supplied protocol.
The effect of AR activation by androgen on transcriptional activity of full length SSAT promoter and the necessity of JunD for such effect was studied in LNCaP cells stably transfected with either junD silenced (siJunD) or control vector that were then transiently transfected with a full length SSAT promoter-firefly luciferase reporter vector (FLSSAT-luc) followed by androgen treatment (FIGS. 4A,B). Androgen treatment (1 nM R1881) caused a significant>16-fold increase in SSAT promoter activity in vector control LNCaP cells (Control) compared to corresponding untreated cells (FIG. 4A, P=0.03). […]

AR-JunD immunocomplex = AR-JunD immunocomplex (Homo sapiens, UniProt P10275, T878A); details: IP:JunD/WB:AR, 1 nM R1881, 72 h, normalized to β-actin
Description: For whole cell lysates, LNCaP cells were lysed using modified RIPA buffer containing complete protease inhibitors (Roche Applied Sciences, Indianapolis, Ind.). Nuclear and cytoplasmic fractions were prepared and checked for purity using NE-PER Nuclear and Cytoplasmic extraction reagents (Thermo Scientific, Pierce Biotechnology, Rockford, Ill.) following manufacturer-supplied protocols. For immunoprecipitation, lysates were pre-cleared by incubation with 50% Protein A-agarose slurry (Pierce, Rockford, Ill.). Six g of AR antibody and 500 μl pre-cleared lysate (500 μg total protein) were mixed and rocked overnight at 4° C. The immunocomplex was captured with 100 μl of 50% protein A-agarose slurry, then analyzed by western blotting using JunD antibody. The same immunoprecipitation procedure was repeated for capturing the immunocomplex using JunD antibody and western blotting using AR antibody. Proper controls with IgG and protein A-agarose were run in parallel.
To specifically investigate the effect of androgen, LNCaP cell lysates were prepared after incubation with 1 nM R1881 for 72 h and analyzed for co-immunoprecipitation of AR and JunD.

SSAT mRNA = SSAT mRNA by qRT-PCR in LNCaP cells; assay type: cell-based, human
Description: Quantitative RT-PCR analysis of SSAT mRNA levels are performed.
The effect of AR activation by androgen on transcriptional activity of full length SSAT promoter and the necessity of JunD for such effect was studied in LNCaP cells stably transfected with either junD silenced (siJunD) or control vector that were then transiently transfected with a full length SSAT promoter-firefly luciferase reporter vector (FLSSAT-luc) followed by androgen treatment (FIGS. 4A,B). Androgen treatment (1 nM R1881) caused a significant>16-fold increase in SSAT promoter activity in vector control LNCaP cells (Control) compared to corresponding untreated cells (FIG. 4A, P=0.03). […] There is an androgen-induced increase in SSAT mRNA (˜10-fold) in siJunD cells, but this increase is much less than that observed in vector control cells (˜25-fold).

JunD-AR complex = JunD-AR complex (Homo sapiens, UniProt P10275); details: Hep3B, 2 nM R1881, 48 h
Sequence of JunD-AR complex (P10275 whole entry): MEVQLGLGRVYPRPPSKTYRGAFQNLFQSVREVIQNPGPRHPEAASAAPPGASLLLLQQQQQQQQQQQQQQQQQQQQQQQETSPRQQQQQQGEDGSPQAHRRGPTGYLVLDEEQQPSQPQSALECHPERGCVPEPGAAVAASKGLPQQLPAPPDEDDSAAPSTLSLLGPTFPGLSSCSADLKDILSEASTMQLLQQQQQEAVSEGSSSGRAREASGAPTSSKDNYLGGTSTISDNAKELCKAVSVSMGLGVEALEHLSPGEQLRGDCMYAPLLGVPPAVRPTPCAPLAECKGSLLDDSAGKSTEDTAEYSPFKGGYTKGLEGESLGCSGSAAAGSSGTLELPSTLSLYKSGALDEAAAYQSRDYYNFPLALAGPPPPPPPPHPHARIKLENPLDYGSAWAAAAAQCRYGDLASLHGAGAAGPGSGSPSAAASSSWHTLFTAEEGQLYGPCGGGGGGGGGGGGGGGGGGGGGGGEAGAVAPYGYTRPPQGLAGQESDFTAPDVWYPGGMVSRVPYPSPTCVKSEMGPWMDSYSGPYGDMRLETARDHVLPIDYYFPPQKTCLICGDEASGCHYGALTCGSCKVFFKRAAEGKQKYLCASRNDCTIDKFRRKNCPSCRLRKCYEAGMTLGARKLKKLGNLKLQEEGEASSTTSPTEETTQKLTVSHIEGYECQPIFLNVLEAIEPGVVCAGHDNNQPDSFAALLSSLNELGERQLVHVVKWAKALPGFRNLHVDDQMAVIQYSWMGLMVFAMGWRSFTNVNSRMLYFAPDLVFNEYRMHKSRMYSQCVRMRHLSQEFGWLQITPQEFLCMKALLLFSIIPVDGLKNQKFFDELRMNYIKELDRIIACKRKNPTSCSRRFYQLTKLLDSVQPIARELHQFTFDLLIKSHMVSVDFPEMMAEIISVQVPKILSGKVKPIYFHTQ
Sequence of JunD-AR complex (P17535 whole entry partner): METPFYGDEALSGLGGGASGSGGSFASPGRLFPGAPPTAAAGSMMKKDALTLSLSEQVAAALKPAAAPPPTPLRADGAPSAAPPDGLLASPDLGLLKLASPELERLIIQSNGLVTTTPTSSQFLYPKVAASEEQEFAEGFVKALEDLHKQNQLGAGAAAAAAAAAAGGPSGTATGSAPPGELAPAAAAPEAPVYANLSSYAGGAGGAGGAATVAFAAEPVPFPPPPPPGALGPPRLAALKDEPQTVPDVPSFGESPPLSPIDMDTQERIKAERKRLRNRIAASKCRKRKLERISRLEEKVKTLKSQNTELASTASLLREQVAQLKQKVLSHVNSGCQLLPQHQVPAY
Description: The two vectors were co-transfected into Hep3B liver carcinoma cells with no AR background.
5×10^5 Hep3B cells were seeded, then one day later co-transfected with 3 g each of Gluc1-AR and JunD-Gluc2 constructs, or transfected with Gluc1-AR or JunD-Gluc2 alone as negative controls using Lipofectamine 2000 reagent (Invitrogen), following the manufacturer-supplied protocol. Two to three hours after transfection, cells were washed and refed DMEM without serum and treated with 2 nM R1881 for 48 h prior to collecting cell lysates. Corresponding untreated cells were used as negative controls.
Gaussia luciferase activity was measured in 25 μl of Hep3B cell lysates from R1881-treated or untreated control cells using a Gaussia luciferase assay kit from New England Biolabs (Ipswich, Mass.), following the manufacturer-supplied protocol.

Sequence of AR-JunD immunocomplex (P10275 whole entry T878A): as the sequence (P10275 whole entry) above, with T878A counted along it
Sequence of AR-JunD immunocomplex (P17535 whole entry partner): as the sequence (P17535 whole entry partner) above

NN(CC(=O)O)CC(=O)O
AR-LBD binding / anti-androgenic properties [1]: no AR-LBD binding property; also recorded: no anti-androgenic properties | concentration of growth inhibition (LNCaP cells [2]): sub-micromolar | reduction of ROS levels in cells not treated with R1881 (LNCaP cells [3]; LNCaP without R1881): weak activity in reducing ROS levels

O=C(O)CN(CC(=O)O)N1C(=O)c2ccccc2C1=O [2,2′-(1,3-dioxoisoindolin-2-ylazanediyl)diacetic acid]
AR-LBD binding / anti-androgenic properties [1]: no AR-LBD binding property; also recorded: no anti-androgenic properties | concentration of growth inhibition (LNCaP cells [2]): sub-micromolar

C=C=CCNCCCCNCC=C=C [N,N′-butadienyl-butanediamine]
CaP progression [4]: significantly prevents | oxidative stress in the prostate [4]: markedly reduces | androgen-induced ROS production (human CaP cells): completely blocks

C[C@]1(O)CC[C@H]2[C@@H]3CCC4=CC(=O)CCC4=C3C=C[C@@]21C [R1881, methyltrienolone]
increase in SSAT promoter activity (SSAT promoter; siJunD LNCaP): small increase | increase in SSAT promoter activity (SSAT promoter; vector control LNCaP): > 16 fold | increase of AR-JunD immunocomplex in nuclear fraction (AR-JunD immunocomplex): approximately 3 fold | increase in SSAT mRNA (treated/untreated) (SSAT mRNA; JunD silenced (siJunD) LNCaP cells): ~10 fold | increase in SSAT mRNA (treated/untreated) (SSAT mRNA; vector control LNCaP cells): ~25 fold and > 25 fold | increase in reconstituted Gaussia luciferase activity versus untreated cells (JunD-AR complex): ~10 fold and > 5 fold

COC(=O)CN(N)CC(=O)OC [dimethyl 2,2′-(hydrazine-1,1-diyl)diacetate]
AR-LBD binding / anti-androgenic properties [1]: interaction with the AR-LBD that is comparable with that of bicalutamide | concentration range of cell growth inhibition (LNCaP cells [2]): 1-10 | melting point: 166 °C | effect on ROS levels under any condition (LNCaP cells [3]; LNCaP with or without R1881): no effect on the ROS levels
